Where no end group is shown, it is not given here.
What was measured:
[1] = test system: 4,5,12:i:- H1-024; type: cell-based, Salmonella enterica 4,5,12:i:-; conditions: strain H1-024
Source text: (§1) All tests were done in triplicate.

[2] = test system: 4,5,12:i:- H1-100; type: cell-based, Salmonella enterica 4,5,12:i:-; conditions: strain H1-100
Source text: as §1

[3] = test system: 4,5,12:i:- H2-010; type: cell-based, Salmonella enterica 4,5,12:i:-; conditions: strain H2-010
Source text: as §1

[4] = test system: 4,5,12:i:- H2-039; type: cell-based, Salmonella enterica 4,5,12:i:-; conditions: strain H2-039
Source text: as §1

[5] = test system: 4,5,12:i:- H2-042; type: cell-based, Salmonella enterica 4,5,12:i:-; conditions: strain H2-042
Source text: as §1

[6] = test system: 4,5,12:i:- H2-047; type: cell-based, Salmonella enterica 4,5,12:i:-; conditions: strain H2-047
Source text: as §1

[7] = test system: 4,5,12:i:- H2-049; type: cell-based, Salmonella enterica 4,5,12:i:-; conditions: strain H2-049
Source text: as §1

[8] = test system: 4,5,12:i:- H2-067; type: cell-based, Salmonella enterica 4,5,12:i:-; conditions: strain H2-067
Source text: as §1

[9] = test system: 4,5,12:i:- H2-071; type: cell-based, Salmonella enterica 4,5,12:i:-; conditions: strain H2-071
Source text: as §1

[10] = test system: 4,5,12:i:- H2-089; type: cell-based, Salmonella enterica 4,5,12:i:-; conditions: strain H2-089
Source text: as §1

[11] = test system: S. Typhimurium ATCC13311; type: cell-based, Salmonella enterica serovar Typhimurium; conditions: at MIC and 2 × MIC
Protocol: Bacterial killing kinetics of A11 were investigated against S. Typhimurium as described previously. S. Typhimurium ATCC13311 was grown in TSB at 37 °C until reaching the exponential phase. […] The mixture was sampled at 1, 2, 4, 6, 8, 12 and 24 h, and subsequently tenfold serially diluted in 1 × PBS and plated in triplicate on Mueller–Hinton agar (MHA). After incubation at 37 °C for 24 h, the colonies were counted and CFU/ml was calculated. The tests were done in three independent experiments.

[12] = test system: S. Typhimurium ATCC 13311; assay: Effect of pH on MIC; type: cell-based, Salmonella enterica serovar Typhimurium
Protocol: The pH of peptide solutions was adjusted (pH 3, 5, 7, 9 and 11) using 1 M acetic acid (CH3COOH) and 1 M sodium hydroxide (NaOH). Solutions adjusted to the different pHs without addition of A11 were used as controls. Subsequently, twofold serially diluted solutions (0.98–250 μg/ml) of A11 peptide were prepared with different pHs of peptide solution and incubated at 37 °C for 60 min, transferred to 1 × 10^7 CFU/ml of S. Typhimurium ATCC 13311 suspensions, then incubated at 37 °C with continuous shaking. After 24 h, MIC values were determined.

[13] = test system: 4,5,12:i:- H1-100; conditions: checkerboard, TSB, 37 °C, 24 h
Protocol: (§2) Effects of the combination of A11 with nisin against S. Typhimurium ATCC 13311 and 10 drug-resistant S. Typhimurium and S. enterica isolates were determined by the checkerboard titration method. Briefly, 10 drug-resistant S. Typhimurium were grown to a concentration of 1 × 10^7 CFU/ml in fresh TSB. Aliquots (25 µl) of nisin (final concentrations of 0.5–16 mg/ml) and A11 (final concentrations of 0.98–250 µg/ml) were added into 96-well plates containing 50 µl of bacterial suspension and cultured at 37 °C. […] ICA is the concentration required to produce the same effect as compound A when used alone, ICB is the concentration required to produce the same effect as compound B when used alone. The CI results were interpreted as follows: a CI of less than 1 indicates synergistic effect, a CI equal to 1 indicates additive effect, and a CI of more than 1 indicates antagonistic effect.

[14] = test system: 4,5,12:i:- H2-039; conditions: checkerboard, TSB, 37 °C, 24 h
Protocol: as §2

[15] = test system: 4,5,12:i:- H2-042; conditions: checkerboard, TSB, 37 °C, 24 h
Protocol: as §2

[16] = test system: 4,5,12:i:- H2-089; conditions: checkerboard, TSB, 37 °C, 24 h
Protocol: as §2

[17] = test system: S. Typhimurium ATCC13311; conditions: checkerboard, TSB, 37 °C, 24 h
Protocol: as §2

[18] = test system: S. Typhimurium H1-001; conditions: checkerboard, TSB, 37 °C, 24 h
Protocol: as §2

[19] = test system: S. Typhimurium H1-006; conditions: checkerboard, TSB, 37 °C, 24 h
Protocol: as §2

[20] = test system: S. Typhimurium H1-011; conditions: checkerboard, TSB, 37 °C, 24 h
Protocol: as §2

[21] = test system: S. Typhimurium H1-015; conditions: checkerboard, TSB, 37 °C, 24 h
Protocol: as §2

[22] = test system: S. Typhimurium H1-041; conditions: checkerboard, TSB, 37 °C, 24 h
Protocol: as §2

[23] = test system: S. Typhimurium H1-062; conditions: checkerboard, TSB, 37 °C, 24 h
Protocol: as §2

## WVKKVARKVVKIGRKVAR-NH2 [A11]
[1]
  MBC: 62.5 (62.5) µg/ml
  MIC: 62.5 (62.5) µg/ml
[2]
  MBC: 62.5 (62.5) µg/ml
  MIC: 62.5 (62.5) µg/ml
[3]
  MBC: 62.5 (62.5) µg/ml
  MIC: 62.5 (62.5) µg/ml
[4]
  MBC: 125 µg/mL
  MIC: 62.5 µg/mL
[5]
  MBC: 125 µg/mL
  MIC: 62.5 µg/mL
[6]
  MBC: 125 µg/mL
  MIC: 62.5 µg/mL
[7]
  MBC: 125 µg/mL
  MIC: 62.5 µg/mL
[8]
  MBC: 62.5 (62.5) µg/ml
  MIC: 62.5 (62.5) µg/ml
[9]
  MBC: 125 (125) µg/ml
  MIC: 125 (125) µg/ml
[10]
  MBC: 125 µg/mL
  MIC: 62.5 µg/mL
[11]
  killing of S. Typhimurium within 6 h: more than 99%
[12]; peptide solution adjusted to pH 3, incubated 37 °C 60 min, then 24 h with 1 × 10^7 CFU/ml
  MIC at pH 3: 125 µg/ml
[12]; peptide solution adjusted to pH 5, incubated 37 °C 60 min, then 24 h with bacteria
  MIC at pH 5: 31.25 µg/ml
[12]; peptide solution adjusted to pH 7, incubated 37 °C 60 min, then 24 h with bacteria
  MIC at pH 7: 15.63 µg/ml
[12]; peptide solution adjusted to pH 9, incubated 37 °C 60 min, then 24 h with bacteria
  MIC at pH 9: 15.63 µg/ml
[12]; peptide solution adjusted to pH 11, incubated 37 °C 60 min, then 24 h with bacteria
  MIC at pH 11: 31.25 µg/ml
[13]
  MIC (alone): 62.5 µg/mL
[14]
  MIC (alone): 62.5 µg/mL
[15]
  MIC (alone): 62.5 µg/mL
[16]
  MIC (alone): 62.5 µg/mL
[17]
  MIC (alone): 15.63 µg/mL
[18]
  MIC (alone): 62.5 µg/mL
[19]
  MIC (alone): 125 µg/mL
[20]
  MIC (alone): 62.5 µg/mL
[21]
  MIC (alone): 62.5 µg/mL
[22]
  MIC (alone): 125 µg/mL
[23]
  MIC (alone): 125 µg/mL

Reference: article PMC9981719, “A novel designed membrane-active peptide for the control of foodborne Salmonella enterica serovar Typhimurium” (Scientific Reports, 2023)
